Laboratory results as given in paper PMC6514686, “Tri-Cyclic Nucleobase Analogs and Their Ribosides as Substrates of Purine-Nucleoside Phosphorylases. II Guanine and Isoguanine Derivatives” (Molecules, 2019).
Where a chain is given by its changes, count along the chain named. Read-outs that look alike come from different tables or passages of the source. Each block holds one molecule with its values, some of them ahead of it.

Tests used:
[1] = target: T1, E. coli PNP (Escherichia coli, UniProt P0ABP8); experiment: phosphorolysis of nucleosides in phosphate buffer by E. coli PNP; format: biochemical; conditions: for phosphorolysis (in words): 50 mM phosphate buffer, pH 6.5
T1 construct: made in house; host or cells: E. coli
Procedure: (§1) For kinetic analyses, enzymatic ribosylation reactions were carried out in 1 mL cuvettes (pathlength 4 mm) in ~50 mM HEPES buffer, pH 7.3, using ca. 0.5 mM R1P as a ribose source. On a larger scale, reactions were run in Eppendorf tubes, volume 2–3 mL, using either R1P or 7-methylguanosine as ribose sources. Phosphorolysis reactions were run in 50 mM phosphate buffer, pH 7.0 or 6.5. Data were analyzed by standard methods (see Supplementary Materials).

[2] = target: T2, calf PNP (Bos taurus, UniProt P55859); experiment: phosphorolysis of nucleosides in phosphate buffer by calf PNP; format: biochemical
T2 construct: made in house; host or cells: E. coli
T2 sequence (P55859 1-289): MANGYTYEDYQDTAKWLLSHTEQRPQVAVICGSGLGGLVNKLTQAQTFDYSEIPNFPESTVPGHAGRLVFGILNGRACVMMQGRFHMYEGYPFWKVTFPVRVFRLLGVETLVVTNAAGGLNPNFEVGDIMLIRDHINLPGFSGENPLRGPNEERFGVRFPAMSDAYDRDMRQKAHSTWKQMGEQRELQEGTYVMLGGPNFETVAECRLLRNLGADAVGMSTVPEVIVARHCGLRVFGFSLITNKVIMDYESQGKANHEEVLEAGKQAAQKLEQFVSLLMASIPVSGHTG
Procedure: as §1

[3] = target: T3, calf PNP-mutantN243D (Bos taurus, UniProt P55859, N243D); experiment: enzymatic ribosylation by α-D-ribose-1-phosphate, calf PNP N243D mutant; format: biochemical
T3 construct: made in house; host or cells: E. coli
T3 sequence (P55859 1-289 N243D): T2 sequence (P55859 1-289) with N243D
Procedure: as §1
(§2) Recombinant E. coli and calf spleen PNPs as well as their mutated forms were expressed in E. coli and purified according to the procedures described earlier.

[4] = ionization constants (spectrophotometric titrations)
[5] = target: T4, E.coli PNP-mutantD204N (Escherichia coli, UniProt P0ABP8, D205N); experiment: enzymatic ribosylation by α-D-ribose-1-phosphate, E. coli PNP D204N mutant; format: biochemical; conditions: for Vmax (relative): relative to Vmax of guanine ribosylation under the same conditions (=100), 40 mM HEPES, pH 7, error ~10%
T4 construct: made in house; host or cells: E. coli
Procedure: as §1, §2

[6] = target: T5, E.coli PNP-wt (purine-nucleoside phosphorylase) (Escherichia coli, UniProt P0ABP8); experiment: enzymatic ribosylation of nucleobase analogs by α-D-ribose-1-phosphate, E. coli PNP wild type; format: biochemical; conditions: for Vmax (relative): relative to Vmax of guanine ribosylation under the same conditions (=100), 40 mM HEPES, pH 7, error ~10%
T5 construct: made in house; host or cells: E. coli
T5 sequence (P0ABP8 2-239 limits assumed): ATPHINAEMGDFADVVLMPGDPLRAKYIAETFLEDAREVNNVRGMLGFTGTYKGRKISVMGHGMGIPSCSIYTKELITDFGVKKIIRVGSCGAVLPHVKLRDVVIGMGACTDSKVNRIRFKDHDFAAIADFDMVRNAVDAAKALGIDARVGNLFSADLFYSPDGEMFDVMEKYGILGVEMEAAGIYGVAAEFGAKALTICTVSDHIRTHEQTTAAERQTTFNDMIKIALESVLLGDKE
Procedure: as §1, with “For kinetic analyses, enzymatic ribosylation reactions were carried out in 1 mL cuvettes (pathlength 4 mm) in ~50 mM HEPES buffer, pH 7.3, using ca.” left out
as §2

[7] = target: T6, calf PNP-wt (calf spleen purine-nucleoside phosphorylase) (Bos taurus, UniProt P55859); experiment: enzymatic ribosylation by α-D-ribose-1-phosphate, calf PNP wild type; format: biochemical; conditions: for Vmax (relative): relative to Vmax of guanine ribosylation under the same conditions (=100), 40 mM HEPES, pH 7, error ~10%
T6 construct: made in house; host or cells: E. coli
T6 sequence (P55859 1-289): T2 sequence (P55859 1-289)
Procedure: as §1, §2

[8] = target: T2, calf PNP; set-up: method as in PMID 29376769; conditions: cited from earlier work
[9] = target: T1, E. coli PNP; set-up: method as in PMID 29376769; conditions: cited from earlier work
[10] = target: T2, calf PNP; experiment: inhibition of guanine ribosylation catalyzed by calf PNP; format: biochemical; conditions: similar conditions as with E. coli PNP
Procedure: (§3) N^2,3-etheno-O^6-methylguanine (3) effectively competes with guanine in the ribosylation process, acting as quasi inhibitor of the E. coli PNP, with estimated Kiapp value 7.5 ± 0.8 μM (competitive model; average of 3 determinations), in agreement with the Km value, estimated from kinetic data (see the previous paragraph).
as §1

[11] = target: T1, E. coli PNP; experiment: inhibition of guanine ribosylation catalyzed by E. coli PNP; format: biochemical
Procedure: We conclude that inability of the enzyme to ribosylate (2) is not due to geometric hindrance, but rather should be ascribed to unfavorable energetic factors, in accordance with previous reports about the relative instability of the glycosidic bond in this compound [23].
as §3, §1

[12] = substrate: O=c1c2[nH]cnc2nc2[nH]ccn12; experiment: enzymatic ribosylation of nucleobase analogs by α-D-ribose-1-phosphate, E. coli PNP wild type; format: biochemical; conditions: other: ribosylation, 40 mM HEPES buffer, pH 7, α-D-ribose-1-phosphate, standard errors ~15%
Procedure: as §1, with “For kinetic analyses, enzymatic ribosylation reactions were carried out in 1 mL cuvettes (pathlength 4 mm) in ~50 mM HEPES buffer, pH 7.3, using ca.” left out
as §2

[13] = 40 mM HEPES buffer, pH 7, α-D-ribose-1-phosphate
[14] = aqueous, pKa ±0.1, lower (basic) value, protonation to the cation
[15] = aqueous, pKa ±0.1, upper (acidic) value, deprotonation to the monoanion
[16] = no reaction traces even with 10-fold higher enzyme concentrations

T4 sequence (P0ABP8 2-239 D205N): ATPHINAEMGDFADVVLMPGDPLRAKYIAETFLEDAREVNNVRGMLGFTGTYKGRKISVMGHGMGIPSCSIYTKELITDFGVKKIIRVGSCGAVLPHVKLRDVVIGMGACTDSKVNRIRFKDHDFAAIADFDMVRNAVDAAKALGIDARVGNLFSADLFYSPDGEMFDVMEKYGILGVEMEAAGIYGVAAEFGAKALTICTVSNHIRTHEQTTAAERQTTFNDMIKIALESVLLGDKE

Molecule: 1,N^6-etheno-N7-β-D-ribosylisoguanosine [N7-riboside (6)]
phosphorolysis (in words) [1]: Even more rapid

Molecule: 1,N^6-etheno-N^6-β-D-ribosylisoguanosine [N^6-riboside (7)]
phosphorolysis (in words) [1]: much more rapidly
phosphorolysis (in words) [2]: only slowly deribosylated

Molecule: 1,N^6-ethenoisoguanine
Approximate Product Ratio: N9: N7-riboside: N^6-riboside [3, 13]: predominantly N^6
Vmax (relative) ([3]; relative to Vmax of guanine ribosylation under the same conditions (=100), 40 mM HEPES, pH 7, error ~10%): ~1
pKa ±0.1, lower (basic) value ([4]; aqueous, protonation to the cation): 3.5
fitted pKa, lower (basic) value ([4]; spectrophotometric titration, pH 2.9 to 5.5, ±0.2 (Figure S2)): 3.5
fitted pKa, upper (acidic) value ([4]; spectrophotometric titration, pH 6.25 to 11.5, ±0.2 (Figure S2)): 8.1
pH of probable second deprotonation ([4]; spectrophotometric titrations): ~ 13
Vmax (relative) [5]: >5
Km ([6]; 50 mM HEPS buffer, pH 7.3, R1P 0.5 mM, 25 °C (Figure S3), read-out: Km from double-reciprocal plots): 98 µM
Vmax (relative) [6]: ~24
Km ([6]; ribosylation, 40 mM HEPES buffer, pH 7, α-D-ribose-1-phosphate, standard errors ~15%, read-out: Km): 98 µM
Vmax (relative) [7]: 1.6
Km ([7]; ribosylation, 40 mM HEPES buffer, pH 7, α-D-ribose-1-phosphate, standard errors ~15%): ~160 µM

Molecule: O=c1c2nc[nH]c2[nH]c2nccn12 [1,N^2-ethenoguanine, 5,9-dihydro-9-oximidazo{1,2-a}purine]
ribosylation rate, fold slower than the ribosylation of guanine ([3]; pH 7.3, HEPES buffer, 25 °C): ca. 100 fold
pKa [4, 14]: ~2
pKa [4, 15]: ~9.5
Approximate Product Ratio: N9: N7-riboside: N^6-riboside [5, 13]: predominantly N9
Vmax (relative) [5]: >15
Approximate Product Ratio: N9: N7-riboside: N^6-riboside [6, 13]: predominantly N9
Vmax (relative) [6]: 18
share of the one main product in the reaction mixture (HPLC) ([6]; ribosylation, product identical to the chemically generated nucleoside): > 95%
Approximate Product Ratio: N9: N7-riboside: N^6-riboside [7, 13]: predominantly N9
ribosylation rate, fold slower than the ribosylation of guanine ([7]; pH 7.3, HEPES buffer, 25 °C): ca. 100 fold
Vmax (relative) [7]: <0.5

pKa [4, 15]: 8.8
phosphorolysis (in words) [2]: no marked phosphorolysis
Molecule: O=c1c2ncn([C@@H]3O[C@H](CO)[C@@H](O)[C@H]3O)c2nc2[nH]ccn12 [1,N^2-ethenoguanosine]

Molecule: OC[C@H]1O[C@@H](n2cnc3c2ncn2ccnc32)[C@H](O)[C@@H]1O [1,N^6-ethenoadenosine]
phosphorolysis (in words) [8]: resistant
phosphorolysis (in words) [9]: rapidly phosphorolysed

Molecule: O=c1[nH]c2c(ncn2[C@@H]2O[C@H](CO)[C@@H](O)[C@H]2O)c2nccn12 [N9-riboside (5), 1,N^6-etheno-N9-β-D-ribosylisoguanosine]
phosphorolysis (in words) [1]: fairly rapid
pKa [4, 14]: 2.4
pKa [4, 15]: 7.1
phosphorolysis (in words) [2]: not phosphorolysed

Molecule: COc1nc2nccn2c2[nH]cnc12 [N^2,3-etheno-O^6-methylguanine]
pKa [4, 14]: ~3.5
pKa [4, 15]: ~9
inhibition of guanine ribosylation (in words) [10]: no such inhibition is observed
Vmax (relative) [6]: ~0.3
Ki ([11]; competition with guanine in ribosylation, competitive model, average of 3 determinations, read-out: estimated Kiapp): 7.5 ± 0.8 µM
Vmax (relative) [7]: <0.1

Molecule: O=c1nc2[nH]ccn2c2nc[nH]c12 [N^2,3-ethenoguanine]
pKa [4, 14]: ~2.5
pKa [4, 15]: 8.8
substrate activity in ribosylation (in words) [6, 16]: not a substrate
Vmax (relative) [6]: <0.1
Ki ([11]; guanine as substrate of the ribosylation reaction, possibly competitive inhibition, read-out: estimated Ki): 38 µM
substrate activity in ribosylation (in words) [7, 16]: not a substrate
Vmax (relative) [7]: <0.1

Molecule: Nc1nc(=O)[nH]c2c1ncn2[C@@H]1O[C@H](CO)[C@@H](O)[C@H]1O [isoguanosine, reference compound]
Vmax of phosphorolysis, fold lower than that for guanosine ([1]; data not shown): ca. 40 fold
phosphorolysis (in words) [2]: did not see any such reaction

B1: E.coli PNP-wt (purine-nucleoside phosphorylase) (Escherichia coli K-12) (protein)
chain: T5 sequence (P0ABP8 2-239 limits assumed)
notes: made in house; host or cells: E. coli
Km [12]: 48 µM
